Results as given in patent publication US11384078B2, “5,6-fused-bicyclic compounds and compositions for the treatment of parasitic diseases” (NOVARTIS AG, priority 2017, dated 2022).
Read-outs that look alike come from different tables or passages of the source.

Tests used:
Assay type in all cases: cell-based
[1] = system: Trypanosoma cruzi amastigotes cultured in 3T3 fibroblast cells; test: Assay for growth inhibition of kinetoplastid parasite Trypanosoma cruzi (beta-galactosidase Tulahuen strain, CPRG readout); details: Trypanosoma cruzi, T. cruzi amastigotes in 3T3 fibroblast cells, read-out: Buckner infectious T. cruzi EC50
Method in brief: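 3T3 fibroblasts (1,000 cells/well) plated overnight, treated with compound in DMSO, then infected with 10,000 Lac-Z-expressing Tulahuen trypomastigotes. After 6 days, 0.6 mM CPRG with 0.6% NP-40 added for 2 h at room temperature; absorbance gives relative intracellular amastigote numbers. Benznidazole and nifurtimox serve as positive controls.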

[2] = system: L. donovani HU3 strain in mouse peritoneal macrophages; test: Assay for inhibition of parasitemia of Leishmania donovani in mouse macrophages (SYBR Green nuclei count, high-content imaging); details: Leishmania donovani, Peritoneal macrophage, read-out: L. donovani in Mouse Macrophages EC50
From the text: Assay for Inhibition of Parasitemia of Leishmania donovani in Mouse Macrophages
The assay measures the increase in the parasite number in the assayed plate well using a DNA intercalating dye, SYBR Green I® dye (INVITROGEN) to stain Leishmania cell nuclei. L. donovani HU3 strain is propagated by infecting BALB/c mice through tail vein injection with 10^7 Leishmania parasites. Infected mice are allowed to develop infection during 9-11 weeks post-infection. During this time, the parasites accumulate in the infected mouse spleens to large numbers, and the infected mice serve as the source of parasites for the in vitro measurement of compound efficacies. To assay a compound for anti-leishmanial activity, peritoneal macrophages isolated from non-infected BALB/c mice are seeded into 384-well plates at density 2×10^4 macrophages per well in […] of medium (RPM11640, 10% fetal serum albumin, 10 mM HEPES, 1 mM sodium pyruvate, 1% Pen/Strep). Subsequently, the seeded plates are placed into an incubator set to maintain 37° C. temperature and atmosphere with 5% CO2.
The next day, Leishmania parasites are isolated from the spleens of mice infected for 9-11 weeks and 4×10^5 isolated parasites in […] of the above media are added to each plate well. Plates are then returned into incubators and infection is allowed to proceed for 24 hours. After the infection of macrophages is completed, […] of compounds of the invention in the above medium, which also contains 5% DMSO, are added to plate wells containing infected macrophages. At the same time control compounds (miltefosine and amphotericin B) and DMSO are added to plates to serve as the positive and negative controls, respectively. After the compound addition, the plates are returned into incubator and cells infected with parasites are cultured for 5 days. At the end of cultivation, […] of 8% paraformaldehyde is added to plate wells and incubated for 15 min at room temperature. Following the incubation, the paraformaldehyde from plate wells is aspirated, and […] of PBS containing 0.2% Triton X-100 is added to wells. After 15 min incubation, the solution is aspirated from wells again, and replaced with Sybr® Green Dye solution in PBS (1:125,000 dilution). Infected cells are imaged with Evotec Opera high-content microscope, and the number of parasites in well is determined by counting parasite nuclei visualized by staining with Sybr® Green dye.

[3] = system: Trypanosoma brucei brucei (Lister 427) strain; test: Assay for growth inhibition against Trypanosoma brucei brucei (Cell TiterGlo ATP luminescence); details: Trypanosoma brucei, T. brucei brucei (Lister 427); read-out: T. Brucei (HAT) EC50
Method in brief: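 Growth read-out is cellular ATP by CellTiter-Glo luminescence, measured 30 min after reagent addition, following 2-day incubation at 37 °C in CO2. Parasites (10,000/mL, HMI-9 plus 10% FBS and 10% serum plus) faced 10 threefold dilutions in duplicate; IC50 taken as 50% growth inhibition versus untreated.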

[4] = system: Leishmania donovani axenic amastigote; test: In vitro assay for growth inhibition of Leishmania donovani axenic amastigote (Cell TiterGlo luminescence); details: Leishmania donovani, L. donovani axenic amastigotes in vitro; read-out: L. donovani amastigotes EC50
Method in brief: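 Compound-treated wells received 9600 axenic amastigotes in RPMI 1640-based medium at pH 5.5 (37 °C, 5% CO2). Growth measured as ATP luminescence (CellTiter-Glo) after 2-day incubation; DMSO and reference compounds served as controls.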

[5] = L. donovani in mouse peritoneal macrophages

With `O=C(Nc1ccc(F)c(-n2cc3cc(N4CC(F)(F)C4)cnc3n2)c1)[C@H]1C[C@@H]1F` (single isomer, unassigned) [Compound 339] the EC50 ([1]; Fibroblast) was 112 nM, the EC50 [2, 5] was 310 nM and the EC50 [3] was 163 nM. The EC50 [4] was 1590 nM.

`Cc1cccnc1-c1cnc2nn(-c3cc(NC(=O)c4ccco4)ccc3F)cc2c1` [Compound 2, N-(4-fluoro-3-(5-(3-methylpyridin-2-yl)-2H-pyrazolo[3,4-b]pyridin-2-yl)phenyl)furan-2-carboxamide] gave an EC50 ([1]; Fibroblast) of 1 nM, an EC50 [2, 5] of 4.4 nM and an EC50 [3] of less than 23 nM. For the same compound, the EC50 [4] was 3 nM.

`Cc1cccnc1-c1cnc2nn(-c3cc(NC(=O)N4CCC4)ccc3F)cc2c1` [Compound 3, N-(4-fluoro-3-(5-(3-methylpyridin-2-yl)-2H-pyrazolo[3,4-b]pyridin-2-yl)phenyl)azetidine-1-carboxamide] was tested, and the EC50 ([1]; Fibroblast) was 1.6 nM, the EC50 [2, 5] was 2 nM and the EC50 [3] was less than 23 nM. It also gave an EC50 [4] of 1.8 nM.

For `CC(C)Cc1cnc2nn(-c3cc(NC(=O)N4CCC4)ccc3F)cc2c1` [Compound 7, N-(4-fluoro-3-(5-isobutyl-2H-pyrazolo[3,4-b]pyridin-2-yl)phenyl)azetidine-1-carboxamide], the EC50 ([1]; Fibroblast) was 1.6 nM, the EC50 [2, 5] was 4 nM and the EC50 [3] was less than 23 nM. The EC50 [4] was 7.7 nM.

For `CC(C)Cc1cnc2nn(-c3cc(NC(=O)N4CC(F)(F)C4)ccc3F)cc2c1` [Compound 8, 3,3-difluoro-N-(4-fluoro-3-(5-isobutyl-2H-pyrazolo[3,4-b]pyridin-2-yl)phenyl)azetidine-1-carboxamide], the EC50 ([1]; Fibroblast) was 4.5 nM, the EC50 [2, 5] was 3.3 nM and the EC50 [3] was less than 23 nM. For the same compound, the EC50 [4] was 7.7 nM.

For `CN(C)c1cnc2nn(-c3cc(NC(=O)N4CC(F)(F)C4)ccc3F)cc2c1` [Compound 9, N-(3-(5-(dimethylamino)-2H-pyrazolo[3,4-b]pyridin-2-yl)-4-fluorophenyl)-3,3-difluoroazetidine-1-carboxamide], the EC50 ([1]; Fibroblast) was 9.8 nM, the EC50 [2, 5] was 11 nM and the EC50 [3] was 35 nM. The EC50 [4] was 8.7 nM.

`O=C(Nc1ccc(F)c(-n2cc3cc(N4CCC4)cnc3n2)c1)N1CCC1` [Compound 10, N-(3-(5-(azetidin-1-yl)-2H-pyrazolo[3,4-b]pyridin-2-yl)-4-fluorophenyl)azetidine-1-carboxamide] was tested, and the EC50 [1] was 4.8 nM, the EC50 [2] was 7.8 nM and the EC50 [3] was less than 23 nM. For the same compound, the EC50 [4] was 16 nM.

`CC(C)Cc1cnc2nn(-c3cc(NC(=O)N4CC(F)C4)ccc3F)cc2c1` [Compound 14, 3-fluoro-N-{4-fluoro-3-[5-(2-methylpropyl)-2H-pyrazolo[3,4-b]pyridin-2-yl]phenyl}azetidine-1-carboxamide] gave an EC50 ([1]; Fibroblast) of 2 nM, an EC50 [2, 5] of 9.7 nM and an EC50 [3] of less than 23 nM. The EC50 [4] was 12 nM.

Work on `O=C(Nc1ccc(F)c(-n2cc3cc(C4CC4)cnc3n2)c1)N1CC(F)C1` [Compound 15, N-(3-{5-cyclopropyl-2H-pyrazolo[3,4-b]pyridin-2-yl}-4-fluorophenyl)-3-fluoroazetidine-1-carboxamide] yielded an EC50 ([1]; Fibroblast) of 5 nM, an EC50 [2, 5] of 17 nM and an EC50 [3] of less than 23 nM. It also gave an EC50 [4] of 13 nM.

In the case of `O=C(Nc1ccc(F)c(-n2cc3cc(C4CCCCC4)cnc3n2)c1)N1CC(F)C1` [Compound 19, N-(3-{5-cyclohexyl-2H-pyrazolo[3,4-b]pyridin-2-yl}-4-fluorophenyl)-3-fluoroazetidine-1-carboxamide], the EC50 ([1]; Fibroblast) is reported as 11 nM, the EC50 [2, 5] is reported as 81 nM and the EC50 [3] is reported as less than 23 nM. The EC50 [4] was 11 nM.

With `O=C(Nc1ccc(F)c(-n2cc3cc(C4CCC4)cnc3n2)c1)N1CC(F)C1` [Compound 20, N-(3-{5-cyclobutyl-2H-pyrazolo[3,4-b]pyridin-2-yl}-4-fluorophenyl)-3-fluoroazetidine-1-carboxamide] the EC50 ([1]; Fibroblast) was 4.2 nM, the EC50 [2, 5] was 37 nM and the EC50 [3] was less than 23 nM. It also gave an EC50 [4] of 10 nM.

For `CC(C)(C)Cc1cnc2nn(-c3cc(NC(=O)N4CC(F)C4)ccc3F)cc2c1` [Compound 21, N-{3-[5-(2,2-dimethylpropyl)-2H-pyrazolo[3,4-b]pyridin-2-yl]-4-fluorophenyl}-3-fluoroazetidine-1-carboxamide], the EC50 ([1]; Fibroblast) was 1.7 nM, the EC50 [2, 5] was 6.5 nM and the EC50 [3] was less than 23 nM. For the same compound, the EC50 [4] was 7.7 nM.

`CC(C)(C)c1cnc2nn(-c3cc(NC(=O)N4CC(F)C4)ccc3F)cc2c1` [Compound 22, N-(3-{5-tert-butyl-2H-pyrazolo[3,4-b]pyridin-2-yl}-4-fluorophenyl)-3-fluoroazetidine-1-carboxamide] was tested, and the EC50 ([1]; Fibroblast) was 7.2 nM, the EC50 [2, 5] was 21000 nM and the EC50 [3] was less than 23 nM. It also gave an EC50 [4] of 28 nM.

`CCCC(C)c1cnc2nn(-c3cc(NC(=O)N4CC(F)C4)ccc3F)cc2c1` (stereo not shown) [Compound 23, 3-fluoro-N-{4-fluoro-3-[5-(pentan-2-yl)-2H-pyrazolo[3,4-b]pyridin-2-yl]phenyl}azetidine-1-carboxamide] showed an EC50 ([1]; Fibroblast) of 78 nM, an EC50 [2, 5] of 110 nM and an EC50 [3] of less than 23 nM. It also gave an EC50 [4] of 140 nM.

`CCC(C)(C)c1cnc2nn(-c3cc(NC(=O)N4CC(F)C4)ccc3F)cc2c1` [Compound 24, 3-fluoro-N-{4-fluoro-3-[5-(2-methylbutan-2-yl)-2H-pyrazolo[3,4-b]pyridin-2-yl]phenyl}azetidine-1-carboxamide] showed an EC50 ([1]; Fibroblast) of 440 nM, an EC50 [2, 5] of 1000 nM and an EC50 [3] of 610 nM. The EC50 [4] was 880 nM.

For `CCC(C)c1cnc2nn(-c3cc(NC(=O)N4CC(F)C4)ccc3F)cc2c1` (stereo not shown) [Compound 25, N-{3-[5-(butan-2-yl)-2H-pyrazolo[3,4-b]pyridin-2-yl]-4-fluorophenyl}-3-fluoroazetidine-1-carboxamide], the EC50 ([1]; Fibroblast) was 17 nM, the EC50 [2, 5] was 47 nM and the EC50 [3] was less than 23 nM. For the same compound, the EC50 [4] was 21 nM.

In the case of `CC(C)CCc1cnc2nn(-c3cc(NC(=O)N4CC(F)C4)ccc3F)cc2c1` [Compound 27, 3-fluoro-N-{4-fluoro-3-[5-(3-methylbutyl)-2H-pyrazolo[3,4-b]pyridin-2-yl]phenyl}azetidine-1-carboxamide], the EC50 ([1]; Fibroblast) is reported as 38 nM, the EC50 [2, 5] is reported as 15 nM and the EC50 [3] is reported as less than 23 nM. For the same compound, the EC50 [4] was 33 nM.

`O=C(Nc1ccc(F)c(-n2cc3cc(-c4ccccn4)cnc3n2)c1)N1CC(F)C1` [Compound 28, 3-fluoro-N-{4-fluoro-3-[5-(pyridin-2-yl)-2H-pyrazolo[3,4-b]pyridin-2-yl]phenyl}azetidine-1-carboxamide] was tested, and the EC50 ([1]; Fibroblast) was 1 nM, the EC50 [2, 5] was 2 nM and the EC50 [3] was less than 23 nM. For the same compound, the EC50 [4] was 1.3 nM.

Compound `O=C(Nc1ccc(F)c(-n2cc3cc(C4CC4)cnc3n2)c1)N1CC(F)(F)C1` [Compound 29, N-(3-{5-cyclopropyl-2H-pyrazolo[3,4-b]pyridin-2-yl}-4-fluorophenyl)-3,3-difluoroazetidine-1-carboxamide] has an EC50 ([1]; Fibroblast) of 11 nM, an EC50 [2, 5] of 9.7 nM and an EC50 [3] of less than 23 nM. It also gave an EC50 [4] of 8.2 nM.

`CC(C)(C)Cc1cnc2nn(-c3cc(NC(=O)N4CC(F)(F)C4)ccc3F)cc2c1` [Compound 32, N-{3-[5-(2,2-dimethylpropyl)-2H-pyrazolo[3,4-b]pyridin-2-yl]-4-fluorophenyl}-3,3-difluoroazetidine-1-carboxamide] showed an EC50 ([1]; Fibroblast) of 5 nM, an EC50 [2, 5] of 13 nM and an EC50 [3] of less than 23 nM. It also gave an EC50 [4] of 12 nM.

`CC(C)(C)c1cnc2nn(-c3cc(NC(=O)N4CC(F)(F)C4)ccc3F)cc2c1` [Compound 33, N-(3-{5-tert-butyl-2H-pyrazolo[3,4-b]pyridin-2-yl}-4-fluorophenyl)-3,3-difluoroazetidine-1-carboxamide] gave an EC50 ([1]; Fibroblast) of 720 nM, an EC50 [2, 5] of 560 nM and an EC50 [3] of 280 nM. The EC50 [4] was 290 nM.

`CCCC(C)c1cnc2nn(-c3cc(NC(=O)N4CC(F)(F)C4)ccc3F)cc2c1` (stereo not shown) [Compound 34, 3,3-difluoro-N-{4-fluoro-3-[5-(pentan-2-yl)-2H-pyrazolo[3,4-b]pyridin-2-yl]phenyl}azetidine-1-carboxamide] showed an EC50 ([1]; Fibroblast) of 160 nM, an EC50 [2, 5] of 270 nM and an EC50 [3] of 150 nM. For the same compound, the EC50 [4] was 200 nM.
